Measurements published in patent publication US5468757A, “6-azaindole thromboxane synthase inhibitors” (Eli Lilly and Company, priority 1994, dated 1995).

Columns and labels:
thromboxane synthase [1] = assay: Oral activity: serum TXB2 in rats one hour after oral dosing; type: in vivo; details: blood one hour after dosing, mean ± SE, n = 3, dose 0: 340
Procedure: The oral activity of 6-azaindole-1-hexanoic acid was established by treating rats via the oral route with solutions of the compound and one hour later collecting blood. The blood was allowed to clot in glass tubes for 1 hour at 37° C. Serum was collected after sedimentation of the clot by centrifugation at 2000 x g for 15 minutes in a Beckman table top centrifuge. The levels of TXB2 were measured in the serum by radioimmunoassay. Decreased levels of TXB2 indicate the presence of compound in the blood resulting from oral absorption. The results of these experiments are shown in Table 3 and document the availability of the compound via the oral route of administration and the dose-dependency of the desired inhibitory effect on serum TXB2.

[2] = tested on: cyclooxygenase and prostacyclin synthase; assay: Serum 6-keto-PGF1a by radioimmunoassay in whole human blood (specificity of TSI); type: cell-based; details: for Serum 6-keto-PGF1a: whole human blood, mean ± SE, n = 3, vehicle 1.6 ± 0.2
Procedure: (§1) The test compound - 6-azaindole-1-hexanoic acid (the compound of Example 1, Part D) was dissolved in dimethylsulfoxide at varying concentrations. The compound solutions and dimethylsulfoxide alone (vehicle) were incubated with fresh whole human blood that had been anticoagulated with 0.38% trisodium citrate, for 30 minutes at 37° C. After 30 minutes, 0.025 ml of 0.5 M calcium chloride solution was added to each 1 ml of blood and further incubated for one hour at 37° C. Serum was prepared by centrifugation of the blood at 2000 x g for 15 minutes in a Beckman table top centrifuge. Serum TXB2 and 6-keto-PGF1a, the stable metabolites of and markers of synthesis of TXA2 and prostacyclin respectively, were measured by radioimmunoassay by commonly used test methods (see, Refs.,1 & 2 below). Results from the radioimmunoassay of TXB2 are shown in Table 1 and indicate the dose-dependent potency of the compound of Example 1, Part D as a thromboxane synthase inhibitor.
Data determined from the radioimmunoassay of serum 6-keto-PGF1a (reflecting prostacyclin generation) allowed a determination of the specificity of 6-azaindole-1-hexanoic acid for the inhibition of thromboxane synthase versus cyclooxygenase and prostacyclin synthase as indicated by the serum levels of 6-keto-PGF1a. These values decrease in the presence of a nonspecific inhibitor (i.e., aspirin) but are unchanged or increased by specific TSI. The data in Table 2 documents the expected dose-dependent stimulatory effect of the compound of 6-azaindole-1-hexanoic acid on human serum 6-keto-PGF1a levels and confirm the specific TSI by 6-azaindole-1-hexanoic acid.

thromboxane synthase [3] = target: T1, thromboxane synthase (Homo sapiens, UniProt P24557); assay: Thromboxane Synthase Inhibition (TSI) Assay: serum TXB2 by radioimmunoassay in whole human blood; type: cell-based; details: for Serum TXB2: mean ± SE, n = 3, vehicle 375
T1 construct: incubated with fresh whole human blood that had been anticoagulated with 0.38% trisodium citrate; from tissue; host or cells: fresh whole human blood (citrated, recalcified)
T1 sequence (P24557 1-533): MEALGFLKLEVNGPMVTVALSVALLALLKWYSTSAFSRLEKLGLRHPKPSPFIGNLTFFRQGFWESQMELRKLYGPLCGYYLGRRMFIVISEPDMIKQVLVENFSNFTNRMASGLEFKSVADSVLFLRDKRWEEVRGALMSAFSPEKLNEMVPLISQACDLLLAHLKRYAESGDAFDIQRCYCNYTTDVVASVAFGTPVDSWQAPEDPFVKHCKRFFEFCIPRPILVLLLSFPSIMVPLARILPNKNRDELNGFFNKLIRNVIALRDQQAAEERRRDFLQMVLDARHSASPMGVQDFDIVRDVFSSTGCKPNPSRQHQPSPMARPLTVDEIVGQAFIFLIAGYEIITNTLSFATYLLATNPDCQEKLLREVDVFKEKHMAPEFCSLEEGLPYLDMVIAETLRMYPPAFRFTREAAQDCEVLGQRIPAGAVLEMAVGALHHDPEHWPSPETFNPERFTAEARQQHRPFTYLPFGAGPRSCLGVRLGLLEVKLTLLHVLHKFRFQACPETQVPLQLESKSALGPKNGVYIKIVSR
Procedure: The ability of the compound of the present invention to be an effective thromboxane synthase inhibitor were evaluated in the following Thromboxane Synthase Inhibition (TSI) Assay with the results shown in Table 1 below:
Method for Thromboxane Synthase Inhibition (TSI) Test:
as §1

O=C(O)CCCCCn1ccc2ccncc21 [Example 1 Part D, 6-azaindole-1-hexanoic acid]
Serum TXB2 (thromboxane synthase [1]; 1 mg/kg p.o.): 85.1 ng/mL | Serum TXB2 (thromboxane synthase [1]; 10 mg/kg p.o.): 18.4 ng/mL | Serum 6-keto-PGF1a ([2]; 0.01 μM compound): 1.7 ± 0.1 ng/mL | Serum 6-keto-PGF1a ([2]; 0.1 μM compound): 2.4 ± 0.6 ng/mL | Serum 6-keto-PGF1a ([2]; 1 μM compound): 2.6 ± 0.7 ng/mL | Specificity for inhibition of thromboxane synthase versus cyclooxygenase and prostacyclin synthase ([2]; judged from human serum 6-keto-PGF1a levels): specific TSI | Serum TXB2 (thromboxane synthase [3]; 0.01 μM compound): 235 ng/mL | Serum TXB2 (thromboxane synthase [3]; 0.1 μM compound): 109 ng/mL | Serum TXB2 (thromboxane synthase [3]; 1 μM compound): 18.8 ng/mL | IC50 (thromboxane synthase [3]; serum TXB2, mean±SE, n=3, read-out: IC50 (concentration required to reduce thromboxane generation to 50% of vehicle)): 23 ± 4.1 nM
